IC50 data for 27 compounds are collected here from patent US11590139B2, “Substituted aminopurine compounds, compositions thereof, and methods of treatment therewith” (Signal Pharmaceuticals, LLC, priority 2014, dated 2023).

Molecules are shown by their SMILES.

One test has as its system Lox-IMVI melanoma cell line. Briefly: Lox-IMVI anti-proliferative assay (growth inhibition, Cell Titer-Glo). In kind it is cell-based, human. The settings on record: Homo sapiens; IC50 activity level in the cell-based Lox-IMVI anti-proliferative assay; read-out: Activity. The method, boiled down:
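Cells grown in RPMI + 10% FBS were exposed to compound at 0.5 nM to 10 μM (10-point, 3-fold dilution, duplicate, 0.2% DMSO final) for 72 h at 37 °C, 5% CO2. Viability was read by ATP luminescence at t0 and 72 h. IC50 came from a four-parameter logistic fit normalized to DMSO control.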
For the compound `NC(=O)[C@H]1CC[C@@H](n2c(Nc3c(F)ccc(Cl)c3F)nc3cnc(N[C@H]4COC[C@@H]4O)nc32)CC1` [Example 318, (1R,4s)-4-(8-(3-chloro-2,6-difluorophenylamino)-2-((3S,4R)-4-hydroxytetrahydrofuran-3-ylamino)-9H-purin-9-yl)cyclohexanecarboxamide], the IC50 is > 1 µM. `NC(=O)[C@H]1CC[C@@H](n2c(Nc3c(F)ccc(F)c3Cl)nc3cnc(NC4CCOCC4)nc32)CC1` [Example 90, (1s,4s)-4-(8-(2-chloro-3,6-difluorophenylamino)-2-(tetrahydro-2H-pyran-4-ylamino)-9H-purin-9-yl)cyclohexanecarboxamide]: the IC50 lay within 0.25 to 0.5 µM. In the case of `CS(=O)(=O)N1CCC(Nc2ncc3nc(Nc4c(Cl)cc(F)cc4Cl)n([C@H]4CC[C@@H](C(N)=O)CC4)c3n2)CC1` [Example 297, (1s,4s)-4-(8-(2,6-dichloro-4-fluorophenylamino)-2-(1-(methylsulfonyl)piperidin-4-ylamino)-9H-purin-9-yl)cyclohexanecarboxamide], the IC50 is > 1 µM.

On to `NC(=O)[C@H]1CC[C@@H](n2c(Nc3c(F)cc(Cl)cc3Cl)nc3cnc(N[C@@H]4COC[C@H]4O)nc32)CC1` [Example 314, (1S,4s)-4-(8-(2,4-dichloro-6-fluorophenylamino)-2-((3R,4S)-4-hydroxytetrahydrofuran-3-ylamino)-9H-purin-9-yl)cyclohexanecarboxamide], for which the IC50 was > 1 µM. `NC(=O)[C@H]1CC[C@@H](n2c(Nc3c(Cl)cc(Cl)cc3Cl)nc3cnc(N[C@H]4COC[C@@H]4O)nc32)CC1` [Example 313, (1R,4s)-4-(2-((3S,4R)-4-hydroxytetrahydrofuran-3-ylamino)-8-(2,4,6-trichlorophenylamino)-9H-purin-9-yl)cyclohexanecarboxamide]: the IC50 lay in the range of 0.5 to 1 µM. For `NC(=O)[C@H]1CC[C@@H](n2c(Nc3ccc(Cl)c(F)c3F)nc3cnc(N[C@@H]4CC[C@@H](O)C4)nc32)CC1` [Example 216, (1S,4s)-4-(8-(4-chloro-2,3-difluorophenylamino)-2-((1R,3R)-3-hydroxycyclopentylamino)-9H-purin-9-yl)cyclohexanecarboxamide], the IC50 is > 1 µM. Regarding `CC[C@@H](CO)Nc1ncc2nc(Nc3c(F)cc(F)cc3F)n([C@H]3CC[C@@H](C(N)=O)CC3)c2n1` [Example 143, (1R,4s)-4-(2-((S)-1-hydroxybutan-2-ylamino)-8-(2,4,6-trifluorophenylamino)-9H-purin-9-yl)cyclohexanecarboxamide], the IC50 was > 1 µM. Regarding `NC(=O)[C@H]1CC[C@@H](n2c(Nc3c(F)cc(F)cc3Cl)nc3cnc(N[C@@H]4CCC[C@H](O)C4)nc32)CC1` [Example 351, (1S,4s)-4-(8-(2-chloro-4,6-difluorophenylamino)-2-((1R,3S)-3-hydroxycyclohexylamino)-9H-purin-9-yl)cyclohexanecarboxamide], the IC50 is > 1 µM. With `NC(=O)[C@H]1CC[C@@H](n2c(Nc3c(F)cccc3F)nc3cnc(N[C@H]4CCC[C@@H]4O)nc32)CC1` [Example 267, (1R,4s)-4-(8-(2,6-difluorophenylamino)-2-((1S,2S)-2-hydroxycyclopentylamino)-9H-purin-9-yl)cyclohexanecarboxamide], the IC50 is > 1 µM. With `NC(=O)[C@H]1CC[C@@H](n2c(Nc3c(Cl)cc(Cl)cc3Cl)nc3cnc(NC4CC5(COC5)C4)nc32)CC1` [Example 177, (1s,4s)-4-(2-(2-oxaspiro[3.3]heptan-6-ylamino)-8-(2,4,6-trichlorophenylamino)-9H-purin-9-yl)cyclohexanecarboxamide], the IC50 lay in the range of 0.25 to 0.5 µM. With `NC(=O)[C@H]1CC[C@@H](n2c(Nc3c(F)cc(F)cc3Cl)nc3cnc(N[C@H]4C[C@H](O)C4)nc32)CC1` [Example 282, (1s,4s)-4-(8-(2-chloro-4,6-difluorophenylamino)-2-((1R,3r)-3-hydroxycyclobutylamino)-9H-purin-9-yl)cyclohexanecarboxamide], the IC50 is > 1 µM.

As to `NC(=O)[C@H]1CC[C@@H](n2c(Nc3c(Cl)cc(Cl)cc3Cl)nc3cnc(NCC(F)(F)F)nc32)CC1` [Example 109, (1s,4s)-4-(8-(2,4,6-trichlorophenylamino)-2-(2,2,2-trifluoroethylamino)-9H-purin-9-yl)cyclohexanecarboxamide], the IC50 was > 1 µM.

The same test, now with this note: Homo sapiens; Lox-IMVI anti-proliferative assay, IC50 activity level; read-out: Activity.
On to `N#Cc1cc(F)c(Nc2nc3cnc(N[C@@H]4CCC[C@H](O)C4)nc3n2[C@H]2CC[C@@H](C(N)=O)CC2)c(Cl)c1` [Example 456, (1S,4s)-4-(8-(2-chloro-4-cyano-6-fluorophenylamino)-2-((1R,3S)-3-hydroxycyclohexylamino)-9H-purin-9-yl)cyclohexanecarboxamide], for which the IC50 lay in the range of 0.5 to 1 µM.

Take `NC(=O)[C@H]1CC[C@@H](n2c(Nc3c(Cl)cc(Cl)cc3Cl)nc3cnc(N[C@@H]4CCCC[C@@H]4O)nc32)CC1` [Example 483, (1S,4s)-4-(2-((1R,2S)-2-hydroxycyclohexylamino)-8-(2,4,6-trichlorophenylamino)-9H-purin-9-yl)cyclohexanecarboxamide]: the IC50 is > 1 µM. As for `C[C@]1(C(N)=O)CC[C@@H](n2c(Nc3c(F)cc(Cl)cc3F)nc3cnc(NC4CCOCC4)nc32)CC1` [Example 521, (1s,4s)-4-(8-(4-chloro-2,6-difluorophenylamino)-2-(tetrahydro-2H-pyran-4-ylamino)-9H-purin-9-yl)-1-methylcyclohexanecarboxamide], the IC50 was < 0.25 µM. Regarding `N#Cc1cc(F)c(Nc2nc3cnc(NC4CC(F)(F)C4)nc3n2[C@H]2CC[C@@H](C(N)=O)CC2)c(Cl)c1` [Example 400, (1s,4s)-4-(8-(2-chloro-4-cyano-6-fluorophenylamino)-2-(3,3-difluorocyclobutylamino)-9H-purin-9-yl)cyclohexanecarboxamide], the IC50 was 0.5 to 1 µM. For the compound `N#Cc1ccc(Cl)c(Nc2nc3cnc(NC4CCOCC4)nc3n2[C@H]2CC[C@@H](C(N)=O)CC2)c1Cl` [Example 443, (1s,4s)-4-(8-(2,6-dichloro-3-cyanophenylamino)-2-(tetrahydro-2H-pyran-4-ylamino)-9H-purin-9-yl)cyclohexanecarboxamide], the IC50 is > 1 µM. As to `CC[C@@H](CO)Nc1ncc2nc(Nc3c(F)cc(C#N)cc3F)n([C@H]3CC[C@@H](C(N)=O)CC3)c2n1` [Example 402, (1R,4s)-4-(8-(4-cyano-2,6-difluorophenylamino)-2-((S)-1-hydroxybutan-2-ylamino)-9H-purin-9-yl)cyclohexanecarboxamide], the IC50 was > 1 µM. On to `N#Cc1cc(Cl)c(Nc2nc3cnc(N[C@@H]4CCC[C@H](O)C4)nc3n2[C@H]2CC[C@@H](C(N)=O)CC2)c(Cl)c1` [Example 455, (1S,4s)-4-(8-(2,6-dichloro-4-cyanophenylamino)-2-((1R,3S)-3-hydroxycyclohexylamino)-9H-purin-9-yl)cyclohexanecarboxamide], for which the IC50 was < 0.25 µM.

The same test, now with this note: Homo sapiens; Lox-IMVI melanoma cell line, anti-proliferative assay; read-out: Activity (IC50 activity level).
With `NC(=O)[C@H]1CC[C@@H](n2c(Nc3c(F)cc(Cl)cc3Cl)nc3cnc(N[C@H]4CCOC[C@H]4F)nc32)CC1` [Example 714, (1R,4s)-4-(8-(2,4-dichloro-6-fluorophenylamino)-2-((3S,4S)-3-fluorotetrahydro-2H-pyran-4-ylamino)-9H-purin-9-yl)cyclohexanecarboxamide], the IC50 was < 0.25 µM. On the same count and under the same terms, the same measure for `C[C@]1(C(N)=O)CC[C@@H](n2c(Nc3c(F)cc(Cl)cc3F)nc3cnc(N[C@@H]4CCOC[C@H]4F)nc32)CC1` [Example 720, (1S,4s)-4-(8-(4-chloro-2,6-difluorophenylamino)-2-((3S,4R)-3-fluorotetrahydro-2H-pyran-4-ylamino)-9H-purin-9-yl)-1-methylcyclohexanecarboxamide]: < 0.25 µM; for `CS(=O)(=O)N1CCC[C@@H](Nc2ncc3nc(Nc4c(F)cc(Cl)cc4F)n([C@H]4CC[C@@H](C(N)=O)CC4)c3n2)C1` [Example 703, (1S,4s)-4-(8-(4-chloro-2,6-difluorophenylamino)-2-((R)-1-(methylsulfonyl)piperidin-3-ylamino)-9H-purin-9-yl)cyclohexanecarboxamide]: > 1 µM. Regarding `CCN1CCC[C@@H](Nc2ncc3nc(Nc4c(Cl)cc(Cl)cc4Cl)n([C@H]4CC[C@@H](C(N)=O)CC4)c3n2)C1` [Example 732, (1S,4s)-4-(2-((R)-1-ethylpiperidin-3-ylamino)-8-(2,4,6-trichlorophenylamino)-9H-purin-9-yl)cyclohexanecarboxamide], the IC50 was > 1 µM.

Take `N#Cc1cc(F)c(Nc2nc3cnc(N[C@@H]4CCCN(c5ccccc5)C4)nc3n2[C@H]2CC[C@@H](C(N)=O)CC2)c(Cl)c1` [Example 750, (1S,4s)-4-(8-(2-chloro-4-cyano-6-fluorophenylamino)-2-((R)-1-phenylpiperidin-3-ylamino)-9H-purin-9-yl)cyclohexanecarboxamide]: the IC50 is > 1 µM. As for `NC(=O)[C@H]1CC[C@@H](n2c(Nc3c(F)cc(F)cc3Cl)nc3cnc(N[C@@H]4CCCN(C(=O)Nc5ccccc5)C4)nc32)CC1` [Example 778, (R)-3-(9-((1s,4S)-4-carbamoylcyclohexyl)-8-(2-chloro-4,6-difluorophenylamino)-9H-purin-2-ylamino)-N-phenylpiperidine-1-carboxamide], the IC50 was > 1 µM. As for `CS(=O)(=O)C1CC(Nc2ncc3nc(Nc4c(Cl)cc(C#N)cc4Cl)n([C@H]4CC[C@@H](C(N)=O)CC4)c3n2)C1` (stereo partly drawn) [Example 730, (1s,4s)-4-(8-(2,6-dichloro-4-cyanophenylamino)-2-(3-(methylsulfonyl)cyclobutylamino)-9H-purin-9-yl)cyclohexanecarboxamide], the IC50 is > 1 µM. For the compound `NC(=O)[C@H]1CC[C@@H](n2c(Nc3c(F)cc(Cl)cc3Cl)nc3cnc(NC4CCC(N5C(=O)CCC5=O)CC4)nc32)CC1` (stereo partly drawn) [Example 667, (1s,4s)-4-(8-(2,4-dichloro-6-fluorophenylamino)-2-(4-(2,5-dioxopyrrolidin-1-yl)cyclohexylamino)-9H-purin-9-yl)cyclohexanecarboxamide], the IC50 is > 1 µM.
